This note sets out measurements from patent US20260256734A1, “COMPOSITIONS COMPRISING SILYMARIN (OR) CURCUMIN AND METFORMIN, METHODS AND APPLICATIONS THEREOF” (ACUBIOSYS PRIVATE LIMITED, priority 2022, published 2026).

In experiment [1] the test system is inflammatory markers (IL-17, IL-1β and IL-23) in IMQ-induced differentiated HaCaT cells. Description: In vitro IMQ-induced psoriatic model, inflammatory markers in conditioned media. Type of experiment: cell-based. The note with it: IMQ 100 μM, formulation in culture media 48 hr, mean ± S.D. From the text:
This study was designed to investigate the effect of a Metf+SMR and Metf+SMR hydro-gel formulation on an IMQ-induced psoriasis-like mouse model. The composition of the hydrogel formulation prepared by using 1.5% crosslinked polyacrylic acid polymer and 1.5% triethanolamine is provided. In doing so, the Applicant expected to obtain supportive evidence of a role for the formulation in treating psoriasis. For that the Applicant has developed hydrogel-based formulations: 1. Metformin and 2. Metformin-silybin (Metf+SMR) 3. Metformin-curcumin (Metf+CMR) and studied invitro cell toxicity in A431 cells by MTT assay and invitro IMQ-induced psoriatic modal using HaCaT cells and determined the inflammatory markers (IL-1β, IL-23 and IL-17).
To set up an efficient and consistent model for psoriasis in vitro, differentiated HaCaT cells were used to screen our test formulations. HaCaT cells were incubated with 2 mM calcium chloride (CaCl2) to achieve differentiation. Induction of psoriatic-like inflammation was achieved by treating the cells with Imiquimod (IMQ) ([…]). The differentiation and inflammation were confirmed by microscopic images. After inflammation, the cells were treated with different formulation dissolved in culture media and incubated for 48 hr. Clobetasol cream formulation was used as a positive control. After incubation, the conditioned media was collected and used for estimation of inflammatory markers (IL-17, IL-1β and IL-23).

The subject of experiment [2] is IMQ-induced psoriasis model in C57BL/6 Mice. Description: IMQ induced psoriatic plaque model, topical hydrogel treatment. It counts as in vivo. The procedure: Hair was shaved along the back of the anesthetized mouse from shoulder to hip by using electric clippers or depilatory cream. Psoriasis-like lesions were induced by a daily topical application of a commercially available IMQ cream (62.5 mg/day for 5 days D1-D5) on the shaved back skin of C57BL/6 mice.
Animals were randomly assigned to the different groups after reaching a maximum score of 4 with respect to erythema, scale, and thickness. Animals that didn't score 4 were excluded from the experiment. Sham psoriasis animals were administered with Vaseline cream; IMQ animals, were only challenged with imiquimod cream, and IMQ animals were treated with a hydrogel that was topically applied using a nylon mesh for even distribution of the hydrogel, for the whole duration of the experiment.
To score the severity of inflammation of the back skin, an objective scoring system was developed based on the clinical Psoriasis Area and severity index (PASI), except that for the mouse model the affected skin area is not taken into account in the overall score. Erythema, scaling, and thickening was scored independently on a scale from 0 to 4:0, none; 1, slight; 2, moderate; 3, marked; 4, very marked. The level of erythema was scored using a scoring table with red taints. The cumulative score (erythema plus scaling plus thickening) served as a measure of the severity of inflammation (scale 0-12).
• 0: None; 1: Slight; 2: Moderate; 3: Marked; 4: Very Marked.
One of the important characteristic feature of psoriasis and the psoriasis-like skin inflammation was abnormal increase of epidermal skin thickness which was measured by vernier calipers.
The IMQ induced, skin tissue sections (H&E stain) were collected after ten days (D1-D10) from all groups.

Take `CC(C)Cn1cnc2c(N)nc3ccccc3c21` [IMQ, Imiquimod]: in experiment [1], the “IL-1β (pg/mL), mean concentration” value is reported as 93.63 ± 2.87 pg/mL; the “IL-17 (pg/mL), mean concentration” value came out at 99.82 ± 3.03 pg/mL; the “IL-23 (pg/mL), mean concentration” value is recorded as 98.73 ± 3.27 pg/mL. In addition, the “epidermal skin thickness with IMQ only” value in experiment [2] (increased from 1.15 mm, IMQ only applied topically) was 2.22 mm. Moreover, the “cumulative score on day 5” value in experiment [2] (scale 0-12, day 5, IMQ only) is given as 12. In addition, the “cumulative score (erythema+scaling+skin thickness) on day 10” value in experiment [2] (scale 0-12, day 10) was 12. The molecule further showed a spleen size (spleen index) in experiment [2] (treatment D6-D10) of 15 mg/g.
